According to patent publication US3984543A, “Therapeutic methods employing cyclic aminophosphonic acids” (Henkel & Cie G.m.b.H., priority 1973, dated 1976):

What was measured:
[1] = Inhibition of precipitation of NH4 MgPO4 in vitro; format: physicochemical; settings: pH 7.4, 72 hours
Description: Since the precipitation of NH4 MgPO4 is occasionally the cause of the formation of urinary calculus, the inhibition of the precipitation of NH4 MgPO4 was also tested in aqueous solutions at pH 7.4. The test was carried out as follows.
A fixed amount of the phosphonic acid was weighed into a beaker and dissolved with 25 ml of a phosphate solution (13.799 gm of NaH2 PO4.H2 O/liter) as well as with 40 ml of distilled water, and standardized with NaOH to a pH of 7.4. After adding 25 ml of a Mg^+^+ and NH4 ^+ solution (20.333 gm of MgC12.6H2 O and 5.349 gm of NH4 Cl/liter, standardized to a pH of 7.4), the solution was brought up with distilled H2 O to 100 ml. Then the sample was covered and evaluated after 72 hours for amount and appearance of the precipitate. The explanation of the data in the left column is to be found in Example 8.

[2] = Sequestration of calcium (modified Hampshire test); format: physicochemical; settings: pH 11; for Consumption of Sequestering Agent Solution: 1 gm sequestering agent in 50 ml H2O, until CaCO3 precipitate redissolved
Description: In the investigation of the sequestration of calcium, a modified Hampshire test was employed and worked as follows:
1 gm of the sequestering agent was dissolved in 50 ml of H2 O, adjusted with NaOH to a pH of 11. 50 ml of a Ca^+^+ solution (1470 mg of CaCl2.2H2 0/1) were mixed with 100 ml of a sodium carbonate solution (7.15 gm NaCO3.10H2 O/l.). Then the solution of the sequestering agent was added in drops from a burette until the calcium carbonate precipitate was redissolved. The values formed have been reported in Table I. For the sake of simplicity, only the value for n and the various substituents for R according to Formula I are indicated in the left column of the Table.

[3] = Calcium phosphate dissolution in vitro (CaHPO4 test); format: physicochemical; settings: for Consumption Sequestering Agent Solution: 10 mg/ml solution, pH 7.4, clear solution after 1 hour; for mg CaHPO4 dissolved / gm Sequestering Agent: pH 7.4, 1 hour
Description: Essential tests for the effectiveness of the compounds in physiological systems are in vitro tests for the dissolving of freshly precipitated CaHPO4, as well as preventing the precipitation of NH4 MgPO4 at a pH of 7.4. The "CaHPO4 test" was carried out as follows.
By combining 25 ml of a phosphate solution (1.38 gm of NaH2 PO4.H2 O/liter, standardized to a pH of 7.4) and 25 ml of a calcium solution (1.45 gm of CaCl2.2H2 O/liter, standardized to a pH of 7.4), a precipitate of CaHPO4 was produced. Thereafter, so much of a solution of the sequestering agent (at a concentration of 10 mg/ml) was added from a burette that a clear solution was obtained after standing for 1 hour.

[4] = Acute toxicity (LD50) in mice; settings: mouse, in vivo
From the text: The new phosphonic acids are characterized by a very low acute toxicity. The following LD50 values of Table IV were found in mice. For the explanation of the data in the left column of Table IV, see Example 8.

[5] = Threshold effect: prevention of precipitation of poorly soluble calcium compounds by substoichiometric amounts; format: physicochemical; settings: 30 minutes
Description: The prevention of the precipitation of poorly soluble calcium compounds by substoichiometric amounts of a sequestering agent was determined at 60° and 95° C as follows:
25 ml of 80° dH (German hardness) water (corresponding to 800 mg CaO/l.) were mixed with a 10 ml of a solution of the sequestering agent (concentration: 300 mg/l.). After dilution with distilled water to 70 ml, 25 ml of a sodium carbonate solution containing 4 gm/l. were added and the solution was brought to 100 ml. After heating for 30 minutes at the indicated temperature, any precipitate formed was separated. The sequestering agent was removed from a measured amount of the clear filtrate by means of an anion exchange resin. Then the content of the dissolved calcium in this sample was determined by complexometry (according to Scharzenbach).

[6] = Apatite crystallization delay test in vitro; format: physicochemical; settings: 2 mg, pH 7.4, 35°C
Description: Supersaturated solutions of Ca^+^+ and HPO4 ^-^- ions are relatively stable, but crystallize after the addition of an apatite nuclei according to the reaction
with the release of protons. The reaction can, therefore, be readily observed by titration with a base at a constant pH.
400 ml of 0.0008 molar KH2 PO4 solution were mixed with 45 ml of a 0.012 molar CaCl2 solution, and the clear solution was standardized with KOH to a pH of 7.4, after being brought to a temperature of 35°C. […] The crystallization set in immediately and was followed by "pH-Stat" titration with 0.05 N KOH.
If a small amount (2 mg) of one of the cyclic aminophosphonic acids of the invention was added to the solution before the apatite was added, the crystallization was greatly delayed.
For simplicity's sake, only the value for n and the various substituents for R according to Formula I in Example 8 are indicated in the left column of the Table.

| SMILES | Consumption of Sequestering Agent Solution [2] [mL] | mg CaCO3 Sequestered per gm of Compound [2] | Consumption Sequestering Agent Solution [3] [mL] | mg CaHPO4 dissolved / gm Sequestering Agent [3] | LD50 [4] [mg/kg] | CaO in Solution ([5]; 60 °C) [%] | CaO precipitated ([5]; 60 °C) [%] | CaO in Solution ([5]; 95 °C) [%] | CaO precipitated ([5]; 95 °C) [%] | Delay of crystallization in % after 4 Hours [6] [%] | Delay of crystallization in % after 8 Hours [6] [%] | further results |
| --- | --- | --- | --- | --- | --- | --- | --- | --- | --- | --- | --- | --- |
| NC1(P(=O)(O)O)CCC(=O)NP1(=O)O (stereo not shown) [n=2, R=H, 2-Hydroxy-2-oxo-3-amino-3-phosphonyl-6-oxo-1-aza-2-phospha-cyclohexane] | 2.6 | 1040 mg CaCO3 per gm of Compound | 6.0 | 570 mg CaHPO4 / gm Sequestering Ag | 3200 | 99.6 | 0.4 | 99.5 | 0.5 |  |  | Precipitation after 72 hours: NH4 MgPO4 crystals ([1]; 61 mg): Few NH4 MgPO4 crystals; Precipitation after 72 hours: cloudiness ([1]; 61 mg): some; Precipitation after 72 hours: NH4 MgPO4 crystals ([1]; 122 mg): No NH4 MgPO4 crystals; Precipitation after 72 hours: cloudiness ([1]; 122 mg): great |
| CNC1(P(=O)(O)O)CCCC(=O)N(C)P1(=O)O (stereo not shown) [n=3, R=CH3, 1-Methyl-2-hydroxy-2-oxo-3-methylamino-3-phosphonyl-7-oxo-1-aza-2-phospha-cycloheptane] | 3.8 | 660 mg CaCO3 per gm of Compound | 5.0 | 680 mg CaHPO4 / gm Sequestering Ag |  |  |  |  |  |  |  | Precipitation after 72 hours: NH4 MgPO4 crystals ([1]; 72 mg): Few NH4 MgPO4 crystals; Precipitation after 72 hours: NH4 MgPO4 crystals ([1]; 144 mg): No NH4 MgPO4 crystals |
| CCNC1(P(=O)(O)O)CCC(=O)N(CC)P1(=O)O (stereo not shown) [n=2, R=C2 H5, 1-Ethyl-2-hydroxy-2-oxo-3-ethylamino-3-phosphonyl-6-oxo-1-aza-2-phospha-cyclohexane] | 2.25 | 1110 mg CaCO3 per gm of Compound |  |  |  |  |  |  |  |  |  |  |
| NC1(P(=O)(O)O)CCCC(=O)NP1(=O)O (stereo not shown) [n=3, R=H, 2-Hydroxy-2-oxo-3-amino-3-phosphonyl-7-oxo-1-aza-2-phospha-cycloheptane] | 3.1 | 810 mg CaCO3 per gm of Compound | 2.5 | 1350 mg CaHPO4 / gm Sequestering Ag | 10000 | 99.6 | 0.4 | 99.5 | 0.5 | 96 | 96 | Precipitation after 72 hours: NH4 MgPO4 crystals ([1]; 68.5 mg): Fewer NH4 MgPO4 crystals; Precipitation after 72 hours: cloudiness ([1]; 68.5 mg): great cloudiness |
| CNC1(P(=O)(O)O)CCC(=O)N(C)P1(=O)O (stereo not shown) [n=2, R=CH3, 1-Methyl-2-hydroxy-2-oxo-3-methylamino-3-phosphonyl-6-oxo-1-aza-2-phospha-cyclohexane] | 3.0 | 840 mg CaCO3 per gm of Compound | 4.0 | 850 mg CaHPO4 / gm Sequestering Ag |  |  |  |  |  | 84 | 76 | Precipitation after 72 hours: NH4 MgPO4 crystals ([1]; 145 mg): Very few NH4 MgPO4 crystals; Precipitation after 72 hours: cloudiness ([1]; 145 mg): no cloudiness; Precipitation after 72 hours: NH4 MgPO4 crystals ([1]; 217.5 mg): No NH4 MgPO4 crystals; Precipitation after 72 hours: cloudiness ([1]; 217.5 mg): no |
| NC1(P(=O)(O)O)CC(=O)NP1(=O)O (stereo not shown) [n=1, R=H, 2-Hydroxy-2-oxo-3-amino-3-phosphonyl-5-oxo-1-aza-2-phospha-cyclopentane] | 2.6 | 1040 mg CaCO3 per gm of Compound | 8.0 | 420 mg CaHPO4 / gm Sequestering Ag |  | 76.1 | 23.9 | 87.7 | 12.3 |  |  |  |
